Where two headings read alike, the source gives them in different places.

The subject of series [1] is LPS-stimulated NO production in RAW 264.7 cells. Kind of series: Inhibition of LPS-induced NO production (nitrite accumulation, Griess reaction) in RAW 264.7 cells. The following applies: Mus musculus; for inhibition at 10 µM: RAW264.7, compound 10 μM, read-out: Percent Inhibition of NO Production at 10 μM. Format: cell-based. As for the experimental part: Treatment of Raw 264.7 cells with LPS (0.1 μg/mL) for 24 h induced NO production which were assessed by measuring the accumulation of nitrite, a stable metabolite of NO, in the media based on Griess reaction. […] However, compound 2a was also highly cytotoxic, in which the survival rate of RAW 264.7 cells was only 9% at a drug concentration of 10 μM. […] The position of substitution play an important role in which substitution at para-position is usually more favorable than its ortho- or meta- counterpart in the inhibitory activity on the LPS-induced NO production. […] Various substituted groups have been introduced on the para-position of the phenyl ring.
Raw 264.7 cells, purchased from Bioresource Collection and Research Center, Taiwan, were cultured in DMEM, supplemented with 5% fetal bovine serum, 100 units/mL of penicillin, 100 μg/mL of streptomycin, 2 mM L-glutamine, and 1 mM non-essential amino acids in a 10-cm plate at a density of 1 × 10^6 cells/mL, at 37 °C in a humidified atmosphere containing 5% CO2.
Nitrite was measured by adding 100 μL of the Griess reagent (1% sulfanilamide and 0.1% N-(1-naphthyl)ethylenediamine dihydrochloride in 5% phosphoric acid) to 100 μL of medium for 5 min. The optical density at 550 nm (OD550) was measured with a microplate reader. Concentrations were calculated by comparison with the OD550 of a standard solution of sodium nitrite prepared in culture medium.
(In general: Nitrite, measured by Griess reagent, commonly stands in for NO production.)

In the next series the test system is RAW 264.7 cells. The series is described as follows: Cell viability (XTT method) of RAW 264.7 cells. Type of series: cell-based. The conditions noted are these: compound 10 μM, 24 h, means ± S.D. Here is the method: To evaluate whether the suppressive effect of compounds on NO production is related to cell viability, Raw 264.7 cells were treated with LPS for 24 h, and washed with 500 μL of phosphate buffer solution (PBS) before resuspended in 1 mL of culture medium. Cell viability tests were run in parallel with NO production assays with an initial cell density of 5 × 10^3 cells/well in the presence or absence of test compounds at 10 μM or 0.1% DMSO as control.
For orientation: Tetrazolium assays rely on reduction of a dye to a coloured formazan, in cell work by metabolically active cells.

A short description of series [2]: NO-scavenging activity (sodium nitroprusside, nitrite by Griess reaction). The conditions noted are these: SNP 2.5 mM, compound 10 μM, light, room temperature, 60 min. As for the experimental part: NO-scavenging effects of pyrazolo[4,3-c]quinolines 2i and 2m were measured according to the reported method. Sodium nitroprusside (SNP) (2.5 mM) was incubated alone or in combination with tested compound (10 μM) or 1400W(10 μM) in light at room temperature for 60 min.
To understand the inhibitory effects of compounds 2i and 2m on NO production, sodium nitroprusside (SNP) was freshly prepared at […] in PBS was incubated alone or in combination with 10 µM of the different compounds. SNP is an inorganic complex where NO is found as NO^+ and light irradiation is necessary for the release of NO. Therefore, incubation mixtures were incubated in light at room temperature, and nitrite levels were determined after 60 min by Griess reaction.
Figure 1 NO-scavenging effects of 1400W, compounds 2i and 2m. SNP solution (2.5 mM) in PBS was incubated alone or with tested compound (10 μM) or 1400W (10 μM) in the presence of light at room temperature for 60 min.

For another series, the system named is iNOS protein expression. Kind of series: LPS-induced iNOS protein expression in RAW 264.7 cells (western blot). Type of series: cell-based, murine. The following applies: pretreated 2 h, LPS 0.1 μg/mL 24 h. Here is the method:
(§1) The effects of compounds 2i and 2m on iNOS and COX-2 protein expression in LPS stimulated Raw 264.7 cell were assessed by western blot. Briefly, Raw 264.7 cells were pretreated with tested compound for 2 h before stimulation in the presence or absence of LPS (0.1 μg/mL). Cells were harvested and lysed with RIPA lysis buffer (50 mM Tris–Cl, pH 8.0, 150 mM NaCl, 0.1% SDS, 0.5% NP-40, 1% sodiumdeoxycholate, 1 mM phenylmethyl-sulfonylfluoride, 1 mM EDTA, no added proteinase) at 24 h after treatment. The total protein concentration in the cell lysates was measured according to the method described by Bradford. Equal amounts (15 μg) of protein were loaded and separated by using 8% SDS–PAGE and analyzed by western blot (ECL Amersham, Bensheim, Germany). The relative expression of proteins was quantified densitometrically using the software LabWorks 4.5 and was normalized againstβ-actin.
Figure 2 Inhibition of iNOS expression by 2i and 2m in LPS-stimulated RAW 264.7 cells. Cells (5 × 10^5 cells/well) were pretreated with the indicated concentrations of tested compounds for 2 h before incubation with 0.1 μg/mL LPS for 24 h. Cell lysates were then prepared and western blots were performed using an antibody specific for murine iNOS.
(In general: In western blotting, separated proteins are transferred to a membrane and probed.)

In another series the test system is iNOS mRNA expression. The series is described as follows: LPS-induced iNOS mRNA expression in RAW 264.7 cells (RT-PCR). Format: cell-based. The conditions noted are these: pretreated 2 h, LPS 0.1 μg/mL. From the text:
Total RNA was extracted by Trizol-Reagent (Invirogen, Carlsbad, CA, USA) according to the manufacturer’s manual. One microgram of RNA was used for the reverse transcription of first strand cDNA using the oligo dT primers. Five microliters of cDNA were used for the amplification of iNOS and GAPDH (glyceraldehyde 3-phosphate dehydrogenase) mRNA expression. The primers for rat iNOS are as follows, forward: 5′-ACTGCGTCGCTTCATTAGGT-3′ and reverse: 5′-TAGGCAAGCGCTTTACCACT-3′. The primers for rat glyceraldehydes 3-phosphate dehydrogenase are as follows, forward: 5′-ATGGCACAGTCAAGGCTGAGA-3′ reverse: 5′-AGACGCCAGTAGACTCCACGAC-3′. The amplicons were electrophoresed on a 3% agarose gel and band intensities were measured using a spectrophotometer (Thermo Fisher Scientific, Waltham, MA, USA) and normalized against GAPDH.
Figure 3 Inhibitory effects of compound 2i and 2m on LPS-induced iNOS mRNA expression. Cells (5 × 10^5 cells/well) were pretreated with the indicated concentrations of tested compounds for 2 h before incubation with 0.1 μg/mL LPS for 9 h. Total RNA was prepared for RT-PCR analysis of iNOS mRNA expression in LPS-stimulated RAW 264.7 cells. GAPDH were used as internal controls for the RT-PCR assays3.4. Inhibition of LPS-inducible COX-2 expression.

The next series has as its system COX-2 protein expression. Kind of series: LPS-inducible COX-2 protein expression in RAW 264.7 cells (western blot). Type of series: cell-based, murine. The conditions noted are these: pretreated 2 h, LPS 0.1 μg/mL 24 h. Here is the method: as §1
Figure 4 Inhibition of COX-2 expression by compound 2i and 2m in LPS-stimulated RAW 264.7 cells. Cells (5 × 10^5 cells/well) were pretreated with the indicated concentrations of tested compounds for 2 h before incubation with 0.1 μg/mL LPS for 24 h. Cell lysates were then prepared and western blots were performed using an antibody specific for murine COX-2.

Where [3] appears, read: RAW264.7, 24 h, RAW 264.7 cells, LPS 0.1 μg/mL 24 h, means ± S.D., read-out: IC50 (inhibition of LPS-induced NO production).
Setting [4] is: RAW264.7, training dataset, negative logarithm of IC50 values, read-out: Observed pIC50 (converted).
Setting [5] is: RAW 264.7 cells, LPS 0.1 μg/mL 24 h, means ± S.D.

The term inhibition denotes the relative decrease from the control value, in per cent. In the case of `Nc1n[nH]c2c1c(Nc1ccc(O)cc1)nc1ccccc12` [Compound 2i, 3-amino-4-(4-hydroxyphenylamino)-1H-pyrazolo[4,3-c]-quinoline], the IC50 in series [1] (setting [3]) was 190 ± 50 nM; in series [1] (setting [4]), 190 nM. Also, the inhibition at 10 µM in series [1] (setting [5]) was determined as 102 ± 2.63%. The “Cell Survival Rate at 10 μM” value in the series with RAW 264.7 cells stood at 87.84 ± 0.15%. In series [2], the “NO-scavenging effect (levels of nitrite from SNP)” value was “did not affect the levels of nitrite”. Besides, in the series on iNOS protein expression, the “Inhibition of LPS-induced iNOS protein expression” value is given as “more potent inhibitory activities than 2m”. Moreover, the “Inhibition of LPS-stimulated iNOS mRNA expression” value in the series with iNOS mRNA expression is on record as “inhibited the LPS-stimulated iNOS mRNA production in a dose-dependent manner”. Also, in the series with COX-2 protein expression, the “Inhibition of LPS-induced COX-2 protein expression” value is given as “effectively suppressed the induction of COX-2 protein expression by LPS”.
Consider `Nc1n[nH]c2c1c(Nc1ccc(C(=O)O)cc1)nc1ccccc12` [Compound 2m, 4-(3-amino-1H-pyrazolo[4,3-c]quinolin-4-ylamino)benzoic acid], for which the IC50 in series [1] (setting [3]) is 220 ± 70 nM; in series [1] (setting [4]), 250 nM. For the same molecule, in series [1] (setting [5]), the inhibition at 10 µM was found to be 87.7 ± 9.93%. The “Cell Survival Rate at 10 μM” value with RAW 264.7 cells is 85.42 ± 0.77%. Moreover, the “NO-scavenging effect (levels of nitrite from SNP)” value in series [2] was “did not affect the levels of nitrite”. Besides, the “Inhibition of LPS-stimulated iNOS mRNA expression” value in the series with iNOS mRNA expression is listed as “inhibited the LPS-stimulated iNOS mRNA production in a dose-dependent manner”. In the series on COX-2 protein expression, the “Inhibition of LPS-induced COX-2 protein expression” value was “effectively suppressed the induction of COX-2 protein expression by LPS”.

Source of the values: PMC6102577, “Discovery of Pyrazolo[4,3-c]quinolines Derivatives as Potential Anti-Inflammatory Agents through Inhibiting of NO Production” (Molecules : A Journal of Synthetic Chemistry and Natural …, 2018).
